Reference: ChEMBL document CHEMBL5291721, “A preclinical secondary pharmacology resource illuminates target-adverse drug reaction associations of marketed drugs” (Nat Commun, 2023)

Assays:
[1] = target: T1, Alpha-2C adrenergic receptor (Homo sapiens, UniProt P18825); format: functional
T1 sequence (P18825 whole entry): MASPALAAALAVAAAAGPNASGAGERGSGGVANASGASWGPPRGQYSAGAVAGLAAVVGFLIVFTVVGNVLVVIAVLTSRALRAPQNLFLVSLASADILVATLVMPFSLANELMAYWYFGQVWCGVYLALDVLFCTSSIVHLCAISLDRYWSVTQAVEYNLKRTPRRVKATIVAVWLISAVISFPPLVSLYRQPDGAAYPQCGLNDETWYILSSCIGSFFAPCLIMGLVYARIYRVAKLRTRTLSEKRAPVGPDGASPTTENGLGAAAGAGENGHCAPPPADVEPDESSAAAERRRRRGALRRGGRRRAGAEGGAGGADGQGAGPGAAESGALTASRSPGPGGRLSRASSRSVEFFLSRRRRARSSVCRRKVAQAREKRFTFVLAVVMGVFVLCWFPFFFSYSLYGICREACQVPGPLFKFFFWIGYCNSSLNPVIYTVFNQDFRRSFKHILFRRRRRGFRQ

[2] = target: T2, Type-1 angiotensin II receptor (Homo sapiens, UniProt P30556)
T2 sequence (P30556 whole entry): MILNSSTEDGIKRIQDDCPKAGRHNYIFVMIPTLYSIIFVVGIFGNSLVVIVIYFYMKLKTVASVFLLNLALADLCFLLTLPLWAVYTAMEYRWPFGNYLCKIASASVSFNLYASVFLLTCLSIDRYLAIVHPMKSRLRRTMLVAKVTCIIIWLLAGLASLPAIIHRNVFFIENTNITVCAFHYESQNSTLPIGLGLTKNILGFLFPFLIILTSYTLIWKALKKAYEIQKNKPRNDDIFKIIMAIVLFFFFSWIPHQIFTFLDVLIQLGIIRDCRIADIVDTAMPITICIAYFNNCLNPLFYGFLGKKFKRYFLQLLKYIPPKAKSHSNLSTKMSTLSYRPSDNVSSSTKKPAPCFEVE

B2 bradykinin receptor = target: T3, B2 bradykinin receptor (Homo sapiens, UniProt P30411)
T3 sequence (P30411 whole entry): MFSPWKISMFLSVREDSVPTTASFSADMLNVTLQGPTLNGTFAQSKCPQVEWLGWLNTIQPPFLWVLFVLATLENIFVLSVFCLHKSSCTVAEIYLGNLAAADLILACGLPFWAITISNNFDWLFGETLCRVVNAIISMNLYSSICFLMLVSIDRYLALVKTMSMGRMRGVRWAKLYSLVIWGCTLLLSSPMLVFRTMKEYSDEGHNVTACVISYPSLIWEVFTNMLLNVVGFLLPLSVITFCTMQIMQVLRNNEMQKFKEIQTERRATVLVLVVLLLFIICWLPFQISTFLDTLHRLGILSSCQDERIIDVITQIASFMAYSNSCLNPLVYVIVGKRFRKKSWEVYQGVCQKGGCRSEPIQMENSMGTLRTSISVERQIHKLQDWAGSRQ

[3] = target: T4, Muscarinic acetylcholine receptor M1 (Homo sapiens, UniProt P11229); format: functional
T4 sequence (P11229 whole entry): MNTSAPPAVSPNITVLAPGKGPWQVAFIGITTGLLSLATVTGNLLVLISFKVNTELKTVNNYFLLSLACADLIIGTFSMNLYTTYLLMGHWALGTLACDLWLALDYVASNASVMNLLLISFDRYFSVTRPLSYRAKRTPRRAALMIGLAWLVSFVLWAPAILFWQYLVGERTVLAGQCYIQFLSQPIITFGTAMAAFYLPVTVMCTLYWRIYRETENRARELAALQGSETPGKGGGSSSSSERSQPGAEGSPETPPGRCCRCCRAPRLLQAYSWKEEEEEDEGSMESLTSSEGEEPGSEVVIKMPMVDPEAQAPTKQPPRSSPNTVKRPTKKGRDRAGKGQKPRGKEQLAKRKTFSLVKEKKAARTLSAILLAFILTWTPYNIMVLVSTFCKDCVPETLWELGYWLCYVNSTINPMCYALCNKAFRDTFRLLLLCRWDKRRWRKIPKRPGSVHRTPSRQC

[4] = target: T5, Muscarinic acetylcholine receptor M2 (Homo sapiens, UniProt P08172); format: functional, cell-based
T5 sequence (P08172 whole entry): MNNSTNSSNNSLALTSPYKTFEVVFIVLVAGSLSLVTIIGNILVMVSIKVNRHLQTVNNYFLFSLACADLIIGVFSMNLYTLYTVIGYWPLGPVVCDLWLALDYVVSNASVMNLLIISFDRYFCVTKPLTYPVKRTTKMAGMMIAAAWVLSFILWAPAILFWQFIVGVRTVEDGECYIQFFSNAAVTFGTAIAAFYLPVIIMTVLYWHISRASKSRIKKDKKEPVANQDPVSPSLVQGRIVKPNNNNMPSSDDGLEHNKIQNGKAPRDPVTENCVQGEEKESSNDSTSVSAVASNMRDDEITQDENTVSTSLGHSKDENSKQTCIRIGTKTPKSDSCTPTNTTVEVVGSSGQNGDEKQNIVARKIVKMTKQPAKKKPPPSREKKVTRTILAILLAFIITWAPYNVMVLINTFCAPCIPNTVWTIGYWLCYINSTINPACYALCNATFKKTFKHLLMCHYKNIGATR

[5] = target: T6, 5-hydroxytryptamine receptor 1A (Homo sapiens, UniProt P08908); format: functional, cell-based
T6 sequence (P08908 whole entry): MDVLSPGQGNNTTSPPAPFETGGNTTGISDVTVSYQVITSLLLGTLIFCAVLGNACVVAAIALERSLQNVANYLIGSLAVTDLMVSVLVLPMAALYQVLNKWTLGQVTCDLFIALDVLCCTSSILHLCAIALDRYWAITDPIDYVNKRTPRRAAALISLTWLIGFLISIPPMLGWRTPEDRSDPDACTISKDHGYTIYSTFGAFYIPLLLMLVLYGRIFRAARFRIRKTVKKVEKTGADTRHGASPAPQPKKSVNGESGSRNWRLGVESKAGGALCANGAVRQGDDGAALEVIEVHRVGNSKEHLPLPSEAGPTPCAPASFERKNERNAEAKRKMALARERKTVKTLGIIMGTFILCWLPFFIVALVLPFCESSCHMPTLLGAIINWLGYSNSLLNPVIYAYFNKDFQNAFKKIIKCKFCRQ

Mu-type opioid receptor = Mu-type opioid receptor (Homo sapiens, UniProt P35372)
Mu-type opioid receptor, sequence (P35372 whole entry): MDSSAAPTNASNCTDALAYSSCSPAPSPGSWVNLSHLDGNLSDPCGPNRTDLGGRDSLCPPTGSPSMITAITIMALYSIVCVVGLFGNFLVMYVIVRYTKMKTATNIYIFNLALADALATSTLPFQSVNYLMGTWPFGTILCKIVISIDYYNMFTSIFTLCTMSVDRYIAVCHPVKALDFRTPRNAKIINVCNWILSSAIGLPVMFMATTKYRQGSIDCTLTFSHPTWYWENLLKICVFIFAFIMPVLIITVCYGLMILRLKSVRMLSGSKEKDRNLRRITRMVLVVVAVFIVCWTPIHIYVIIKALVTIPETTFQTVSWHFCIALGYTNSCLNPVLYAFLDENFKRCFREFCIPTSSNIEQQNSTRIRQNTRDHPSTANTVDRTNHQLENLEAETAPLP
Also: assay procedure not described here.

Row | SMILES | AC50 [1] | AC50 [2] | AC50 (B2 bradykinin receptor) | AC50 [3] | AC50 [4] | AC50 [5] | AC50 (Mu-type opioid receptor)
1 | N#Cc1ccccc1-c1cc(-c2ccccn2)cn(-c2ccccc2)c1=O | > 30 µM | > 30 µM | > 30 µM | > 30 µM | > 30 µM | > 30 µM | 
2 | N=C(N)NCCCCCCC(=O)NC(O)C(=O)NCCCCNCCCN (stereo not given) | > 30 µM | > 30 µM | > 30 µM | > 30 µM | > 30 µM | > 30 µM | 
3 | COc1ccc(/C=C/C(=O)Nc2ccccc2C(=O)O)cc1OC | > 30 µM | > 30 µM | > 30 µM |  | > 30 µM | > 30 µM | > 30 µM
4 | O=C(CCCN1CCC(n2c(O)nc3ccccc32)CC1)c1ccc(F)cc1 [BENPERIDOL] | 1.9 µM | > 30 µM | > 30 µM | 13 µM | 2.64 µM | 0.166 µM | 
5 | CCC(=O)OCC(=O)[C@@]1(OC(=O)CC)[C@@H](C)C[C@H]2[C@@H]3CCC4=CC(=O)C=C[C@]4(C)[C@@]3(F)[C@@H](O)C[C@@]21C [BETAMETHASONE DIPROPIONATE] | > 30 µM | > 30 µM | > 30 µM | > 30 µM | > 30 µM | > 30 µM | 
6 | CCCCC1(CC)C(=O)NC(=O)NC1=O [BUTETHAL] | > 30 µM | > 30 µM | > 30 µM | > 30 µM | > 30 µM | > 30 µM | 
7 | CCOC(=O)NNc1ccc(N(CC)CC(C)O)nn1 (stereo not given) [CADRALAZINE] | > 30 µM | > 30 µM | > 30 µM | > 30 µM | > 30 µM | 27 µM | 
8 | CO[C@@]1(NC(=O)Cc2cccs2)C(=O)N2C(C(=O)O)=C(COC(N)=O)CS[C@@H]21 [CEFOXITIN] | > 30 µM | > 30 µM | > 30 µM | > 30 µM | > 30 µM | > 30 µM | 
9 | CCN(CC)CCOC(=O)c1ccc(N)cc1Cl [CHLOROPROCAINE] | > 30 µM | > 30 µM | > 30 µM | > 30 µM | 29 µM | > 30 µM | 
10 | COCCOC(=O)C1=C(C)NC(C)=C(C(=O)OC/C=C/c2ccccc2)C1c1cccc([N+](=O)[O-])c1 (stereo not given) [CILNIDIPINE] | > 30 µM | > 30 µM | > 30 µM | > 30 µM | > 30 µM | > 30 µM | 
11 | COc1cccc2c1C(=O)c1c(O)c3c(c(O)c1C2=O)C[C@@](O)(C(C)=O)C[C@@H]3O[C@H]1C[C@H](N)[C@H](O)[C@H](C)O1 [DAUNORUBICIN] | 17.5 µM | > 30 µM | > 10 µM |  |  |  | 24 µM
12 | COC(=O)N[C@@H](C)CNc1nccc(-c2cn(C(C)C)nc2-c2cc(Cl)cc(NS(C)(=O)=O)c2F)n1 [ENCORAFENIB] | > 30 µM | > 30 µM | > 30 µM | > 30 µM | > 30 µM | > 30 µM | 
13 | CC(=O)OCC(CCn1cnc2cnc(N)nc21)COC(C)=O [FAMCICLOVIR] | > 10 µM | > 30 µM | > 30 µM |  | > 10 µM | > 10 µM | > 30 µM
14 | Nc1nc(F)nc2c1ncn2[C@@H]1O[C@H](COP(=O)(O)O)[C@@H](O)[C@@H]1O [FLUDARABINE PHOSPHATE] | > 30 µM | > 30 µM | > 30 µM | > 30 µM | > 30 µM | > 30 µM | 
15 | O=C(O)c1ccccc1OP(=O)(O)O [FOSFOSAL] | > 30 µM | > 30 µM | > 30 µM | > 30 µM | > 30 µM | > 30 µM | 
16 | C#C[C@]1(O)CC[C@H]2[C@@H]3CCC4=CC(=O)CCC4=C3C=C[C@@]21CC [GESTRINONE] | > 30 µM | > 30 µM | > 30 µM | > 30 µM | > 30 µM | > 30 µM | 
17 | CCCCCCOC(=O)CCC(=O)CN [HEXAMINOLEVULINATE] | > 30 µM | > 30 µM | > 30 µM | > 30 µM | > 30 µM | > 30 µM | 
18 | CC1(C)C(/C=C/C=C/C=C/C=C2\N(CCCCS(=O)(=O)O)c3ccc4ccccc4c3C2(C)C)=[N+](CCCCS(=O)(=O)[O-])c2ccc3ccccc3c21 [INDOCYANINE GREEN ACID FORM] | 9.7 µM | 9 µM | 26 µM | 9.2 µM |  | > 30 µM | 
19 | CCCC[C@H](C)C[C@H](O)/C=C/[C@H]1[C@H](O)CC(=O)[C@@H]1CCCC/C=C/C(=O)O [LIMAPROST] | > 30 µM | > 30 µM | > 30 µM | > 30 µM | > 30 µM | > 30 µM | 
20 | Cc1ccc(NC(=O)C2(c3ccc4c(c3)OC(F)(F)O4)CC2)nc1-c1cccc(C(=O)O)c1 [LUMACAFTOR] | > 30 µM | > 30 µM | > 30 µM | > 30 µM | > 30 µM | > 30 µM | 
21 | CC[N+]1(C)CCCC(OC(=O)C(O)(c2ccccc2)c2ccccc2)C1 (stereo not given) [PIPENZOLATE] | > 30 µM | > 30 µM | > 30 µM | 0.023 µM | 0.023 µM | > 30 µM | 
22 | CC(=O)c1ccc2c(c1)N(CCCN1CCC(CCO)CC1)c1ccccc1S2 [PIPERACETAZINE] | 0.37 µM | > 30 µM | > 30 µM | 7.9 µM | 24 µM | 0.043 µM | 
23 | COc1c(O[C@@H]2O[C@H](CO)[C@@H](O)[C@H](O)[C@H]2O)cc2c(c1OC)-c1ccc(SC)c(=O)cc1[C@@H](NC(C)=O)CC2 [THIOCOLCHICOSIDE] | > 30 µM | > 30 µM | > 30 µM | > 30 µM | > 30 µM | > 30 µM | 
24 | COc1ccc(C(CN(C)C)C2(O)CCCCC2)cc1 (stereo not given) [VENLAFAXINE] | > 10 µM | > 30 µM | > 30 µM |  | > 10 µM |  | > 30 µM
